The values that follow come from ChEMBL document CHEMBL3856211, “A critical review of both the synthesis approach and the receptor profile of the 8-chloro-1-(2',4'-dichlorophenyl)-N-piperidin-1-yl-1,4,5,6-tetrahydrobenzo[6,7]cyclohepta[1,2-c]pyrazole-3-carboxamide and analogue derivatives” (Eur J Med Chem, 2016).

Assay [1] has as its target Cannabinoid receptor 1 (Mus musculus, UniProt P47746). Put plainly: Displacement of [3H]-CP55,940 from CB1 receptor in mouse whole brain membranes after 60 mins by liquid scintillation spectrometry. Format: cell membranes, Membrane.
For the next assay, the target named is Cannabinoid receptor 2 (Homo sapiens, UniProt P34972). As to the kind of experiment: Displacement of [3H]-CP55,940 from human CB2 receptor transfected in CHO cell membranes after 60 mins by liquid scintillation spectrometry.
Sequence of Cannabinoid receptor 2 (P34972 whole entry): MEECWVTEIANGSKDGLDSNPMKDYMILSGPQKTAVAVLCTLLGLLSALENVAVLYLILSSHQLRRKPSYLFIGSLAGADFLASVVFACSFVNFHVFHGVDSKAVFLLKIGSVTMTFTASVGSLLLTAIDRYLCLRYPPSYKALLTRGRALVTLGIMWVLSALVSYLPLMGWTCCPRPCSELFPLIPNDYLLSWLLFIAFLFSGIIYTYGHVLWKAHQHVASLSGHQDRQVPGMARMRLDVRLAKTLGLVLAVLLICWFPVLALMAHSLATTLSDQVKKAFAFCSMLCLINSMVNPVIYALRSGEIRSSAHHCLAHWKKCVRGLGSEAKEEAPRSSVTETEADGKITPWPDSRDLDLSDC
The target in assay [2] is Cannabinoid receptor 1 (Mus musculus) (UniProt P47746). As to the kind of experiment: Intrinsic activity at CB1 receptor in mouse N1E-115 cells assessed as phosphorylation of ERK1/2 at 1 uM after 10 mins by Western blot method relative to control. Format: cell-based. (In western blotting, separated proteins are transferred to a membrane and probed.)
Sequence of Cannabinoid receptor 1 (Mus musculus) (P47746 whole entry): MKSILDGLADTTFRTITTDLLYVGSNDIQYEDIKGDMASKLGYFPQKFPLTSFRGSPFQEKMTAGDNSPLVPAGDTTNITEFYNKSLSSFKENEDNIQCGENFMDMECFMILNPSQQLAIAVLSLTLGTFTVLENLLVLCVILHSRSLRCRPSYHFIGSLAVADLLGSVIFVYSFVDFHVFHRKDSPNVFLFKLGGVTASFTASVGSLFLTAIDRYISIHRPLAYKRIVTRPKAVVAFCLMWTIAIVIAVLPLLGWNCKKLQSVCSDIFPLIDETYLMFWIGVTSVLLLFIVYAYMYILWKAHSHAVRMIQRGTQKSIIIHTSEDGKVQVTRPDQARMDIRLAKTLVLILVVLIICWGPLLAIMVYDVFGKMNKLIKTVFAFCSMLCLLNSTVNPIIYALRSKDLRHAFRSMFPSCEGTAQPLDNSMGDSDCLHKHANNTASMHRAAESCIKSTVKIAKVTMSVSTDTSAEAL
For assay [3] the target is unchanged. Put plainly: Antagonist activity at CB1 receptor in mouse N1E-115 cells assessed as inhibition of WIN55,212-2-induced phosphorylation of ERK1/2 by measuring phosphorylated ERK1/2 level at 1 uM preincubated for 5 mins followed by WIN55,212-2 addition measured after 10 mins by Western blot method. It counts as cell-based. Also on record: scale not given: the % may be the effect or the level left.

Assay [4] can be described thus: Selectivity ratio of Ki for human CB2 receptor to Ki for CB1 receptor in mouse whole brain membranes. Format: cell membranes.
Assay [5] has as its target Cannabinoid receptor 1 (Mus musculus) (UniProt P47746). As to the kind of experiment: Intrinsic activity at CB1 receptor in mouse N1E-115 cells assessed as phosphorylation of ERK1/2 at 1 nM to 10 uM after 10 mins by Western blot method. Format: cell-based.
Assay [6] deals with Cannabinoid receptor 1 (Homo sapiens, UniProt P21554). As to the kind of experiment: Displacement of [3H]-CP55,940 from human CB1 receptor transfected in CHO cell membranes.
Sequence of Cannabinoid receptor 1 (Homo sapiens, UniProt P21554) (P21554 whole entry): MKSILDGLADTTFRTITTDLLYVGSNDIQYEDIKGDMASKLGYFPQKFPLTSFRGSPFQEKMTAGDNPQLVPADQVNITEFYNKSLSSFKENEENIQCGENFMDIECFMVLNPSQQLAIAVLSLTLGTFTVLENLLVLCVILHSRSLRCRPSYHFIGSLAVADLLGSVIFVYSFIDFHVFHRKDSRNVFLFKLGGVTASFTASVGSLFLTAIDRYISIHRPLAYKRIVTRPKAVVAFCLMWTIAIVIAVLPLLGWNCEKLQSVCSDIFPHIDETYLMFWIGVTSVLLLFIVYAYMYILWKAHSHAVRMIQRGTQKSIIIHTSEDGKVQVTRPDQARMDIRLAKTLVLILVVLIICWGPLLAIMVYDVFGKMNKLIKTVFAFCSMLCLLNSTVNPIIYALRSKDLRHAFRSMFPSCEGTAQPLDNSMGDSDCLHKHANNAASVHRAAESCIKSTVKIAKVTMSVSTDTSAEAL

Structures are written as SMILES. Values joined by “and” are separate entries in the source; they are usually repeats but may differ in a detail not shown here. Identical values can stand only once. Active and inactive are the calls of the source. The calls are words filed in the database; no cut-off is given here.

Sequence of Cannabinoid receptor 1 (Mus musculus, UniProt P47746) (P47746 whole entry): as the sequence (P47746 whole entry) above

For the compound `O=C(NCC12CC3CC(CC(C3)C1)C2)c1nn(-c2ccc(Cl)cc2Cl)c2c1CCCc1cc(Cl)ccc1-2`, the inhibition constant (Ki) at Cannabinoid receptor 1 [1] turned out to be 19.1 nM; on Cannabinoid receptor 2, 13.3 nM. The Intrinsic activity in assay [2] came out at 98%. Also, the Activity in assay [3] worked out at 108%. Moreover, in assay [4], the Ratio Ki came out at 0.69.

Regarding `O=C(NC1CCCCC1)c1nn(-c2ccc(Cl)cc2Cl)c2c1CCCc1cc(Cl)ccc1-2`, the inhibition constant Ki on Cannabinoid receptor 1 [1] came out at 10.2 nM; at Cannabinoid receptor 2, 17.9 nM. Moreover, the Intrinsic activity in assay [2] is 113%. For the same compound, the Activity in assay [3] is 117%. Besides, the Ratio Ki in assay [4] was found to be 1.75.

`CC1(C)C2CCC(CNC(=O)c3nn(-c4ccc(Cl)cc4Cl)c4c3CCCc3ccc(Cl)cc3-4)C1C2` (stereo unspecified): the Ki at Cannabinoid receptor 1 [1] turned out to be 17.3 nM; at Cannabinoid receptor 2, 13.6 nM. Further, in assay [5], the outcome was Active. Moreover, the Ratio Ki in assay [4] amounted to 0.79.

In the case of `O=C(NC[C@H]1CCCO1)c1nn(-c2ccc(Cl)cc2Cl)c2c1CCCc1cc(Cl)ccc1-2`, the Ki was found to be 24.8 nM at Cannabinoid receptor 1 [1] and 52.1 nM at Cannabinoid receptor 2. In addition, the Intrinsic activity in assay [2] is 113%. The Activity in assay [3] amounted to 118%. Moreover, in assay [4], the Ratio Ki was determined as 2.1.

As to `O=C(CC1CCCCC1)c1nn(-c2ccc(Cl)cc2Cl)c2c1CCCc1cc(Cl)ccc1-2`, the Ki came to 8.5 nM at Cannabinoid receptor 1 [1] and 325 nM at Cannabinoid receptor 2. In addition, the Intrinsic activity in assay [2] was determined as 115%. Further, in assay [3], the Activity was 105%. In addition, the Ratio Ki in assay [4] was found to be 38.2.

Regarding `Cc1ccc(Cn2nc(C(=O)NCC3CCC4CC3C4(C)C)c3c2-c2cc(Cl)ccc2CCC3)cc1` (stereo unspecified), the inhibitory constant (Ki) on Cannabinoid receptor 1 [1] came to 169 nM; at Cannabinoid receptor 2 it was 51.1 nM. The Ratio Ki in assay [4] is 0.3.

For `O=C(NN1CCCCCC1)c1nn(-c2ccc(Cl)cc2Cl)c2c1CCCc1cc(Cl)ccc1-2`, the Ki at Cannabinoid receptor 1 [1] was determined as 4.5 nM; at Cannabinoid receptor 2 it was 28.1 nM. Further, the Intrinsic activity in assay [2] came to 107%. The Activity in assay [3] came out at 102%. Besides, the Ratio Ki in assay [4] turned out to be 6.24.

On to `CC1(C)C2CCC(CNC(=O)c3nn(-c4ccc(Cl)cc4Cl)c4c3CCCc3cc(Cl)ccc3-4)C1C2` (stereo unspecified), for which the Ki on Cannabinoid receptor 1 [1] amounted to 3.6 nM; at Cannabinoid receptor 2 it was 19.5 nM. Further, the result in assay [5] was Active. In addition, the Ratio Ki in assay [4] amounted to 5.42.

Consider `O=C(NN1CCCC1)c1nn(-c2ccc(Cl)cc2Cl)c2c1CCCc1cc(Cl)ccc1-2`, for which the values for the Ki at Cannabinoid receptor 1 [1] and at Cannabinoid receptor 2 were 17.2 nM and 182 nM, respectively. For the same compound, the Intrinsic activity in assay [2] was found to be 95%. In assay [3], the Activity is 103%. The Ratio Ki in assay [4] was determined as 10.6.

Consider `O=C(NN1CCCCC1)c1nn(-c2ccc(Cl)cc2Cl)c2c1CCCc1cc(Cl)ccc1-2`, for which the Ki at Cannabinoid receptor 1 [1] was 8.18 nM and 4.2 nM; at Cannabinoid receptor 2 it was 55.7 nM and 85.2 nM; on Cannabinoid receptor 1 [6], 126 nM. The Intrinsic activity in assay [2] was found to be 111%. Also, in assay [3], the Activity was found to be 115%. Also, in assay [4], the Ratio Ki came out at 13.3.

As for `Cc1c(C(=O)NN2CCCCC2)nn(-c2ccc(Cl)cc2Cl)c1-c1ccc(Cl)cc1`, in assay [2], the Intrinsic activity was determined as 110%. The Activity in assay [3] came to 108%.

`CCCCCCC(C)(C)c1ccc([C@@H]2C[C@H](O)CC[C@H]2CCCO)c(O)c1` [CP-55940]: the inhibition constant (Ki) at Cannabinoid receptor 1 [1] was 0.62 nM.

Regarding `OC(CC1CCCCC1)c1nn(-c2ccc(Cl)cc2Cl)c2c1CCCc1cc(Cl)ccc1-2` (stereo unspecified), the Ki at Cannabinoid receptor 1 [1] was determined as 154 nM; on Cannabinoid receptor 2 it was 24 nM. Moreover, the Ratio Ki in assay [4] came out at 0.16.

As for `Cc1ccc(Cn2nc(C(=O)NCC3CCC4CC3C4(C)C)c3c2-c2ccc(Cl)cc2CCC3)cc1` (stereo unspecified), the inhibitory constant (Ki) on Cannabinoid receptor 1 [1] turned out to be 313 nM; on Cannabinoid receptor 2 it was 9.5 nM. For the same compound, the Ratio Ki in assay [4] came to 0.03.

In the case of `O=C(NCC1CCCCC1)c1nn(-c2ccc(Cl)cc2Cl)c2c1CCCc1cc(Cl)ccc1-2`, the Ki at Cannabinoid receptor 1 [1] was 19.4 nM; at Cannabinoid receptor 2 it was 31.8 nM. Further, in assay [2], the Intrinsic activity is 100%. Moreover, the Activity in assay [3] came to 109%. Besides, in assay [4], the Ratio Ki is 1.64.

As usually defined, the Ki is a measure of affinity in units of concentration, obtained from inhibition or displacement.
